Measured values reported in paper PMC7024556 (Molecules, 2020).

Columns and labels:
[1] = test system: Capan-1 cells (BRCA2-deficient); assay: Cell proliferation assay (CellTiter-Glo), Capan-1; type: cell-based; details: for IC50: Homo sapiens, CAPAN-1, light or radiation study, 10 days incubation
Protocol: (§1) To assess the cytotoxicity of test compounds on BRCA-deficient cells using a CellTiter-Glo assay. MX-1 cells (BRCA1-deficient) and Capan-1 cells (BRCA2-deficient) were seeded in 96-well plates at densities that allowed linear growth for 10 days, and adhered overnight at 37 °C in a humidified atmosphere of 5% CO2. Cells were treated in their recommended growth medium containing varying concentrations of test compounds. […] After 10 days of incubation, CellTiter-Glo Reagent (Promega, Madison, WI, USA) was added to the plates, which continued to be incubated for 30 min at room temperature. Chemiluminescence values were recorded by a multiplate reader, and IC50 values were calculated using GraphPad Prism 8.0 software.

[2] = test system: MX-1 cells (BRCA1-deficient); assay: Cell proliferation assay (CellTiter-Glo), MX-1; type: cell-based; details: for IC50: Homo sapiens, MX1, light or radiation study, 10 days incubation
Protocol: as §1

[3] = UV cleavage test in methanol (HPLC); type: physicochemical; details: 20 μM in methanol, 365 nm UV
Protocol: The compound was dissolved in methanol (20 μM), and the solution were irradiated at 365 nm by using an UV crosslinker. Every minute from 0 to 10 min, aliquot samples (200 μL) were determined on an Agilent Eclipse Plus C18 column (4.6 × 150 mm, 5 μm particle size) using mobile phase A (water) and mobile phase B (ACN) to elute. The gradient changed from 70% A to 30% A in 10 min, continuing to elute with 30% A for 5 min. The flow rate was 1 mL/min and the detection wavelength was 220 nm. The peak areas percentage of the compounds at each time point were plotted against the sampling time.

[4] = Talazoparib UV stability assay (HPLC); type: physicochemical; details: 2.63 mM in methanol, 365 nm, up to 10 min
Protocol: The irradiation times were 1 min, 2 min, 3 min, 4 min, 5 min, and 10 min. The irradiated solution was transferred to a volumetric flask and diluted to the same volume with methanol. Then HPLC analysis was performed to detect the compound peak area. […] California, CA, USA) using a mobile phase A (water) and mobile phase B (acetonitrile (ACN)) to elute. The gradient changed from 70% A to 30% A in 10 min, then continuing to elute with 30% A for 5 min. The flow rate was 1 mL/min, and the detection wavelength was 220 nm.

PARP = PARP inhibitor potency; cited from earlier work
[5] = test system: poly (ADP-ribose) (PAR) polymerization in HeLa cells; assay: Cellular PARylation assay (H2O2-induced PAR polymerization); type: cell-based; details: for IC50: Homo sapiens, 18 h compound, 500 μM H2O2, read-out: Inhibit Polymerization of PAR IC50
Protocol: The cellular PARylation assay evaluated the ability of test compounds to inhibit polymerization of PAR. Hela cells were seeded in 96-well plates (10,000 cells/well) in 200 μL of cell complete medium, and were allowed to adhere for 4 h at 37 °C in a humidified atmosphere of 5% CO2. The medium was then removed from the plates, and the cells were treated with varying concentrations of test compounds for 18 h. 100 μL serum-free medium with 500 μM H2O2 solution was added, and the plate was kept at 37 °C for 5 min. Next, cells were fixed for 20 min with prechilled methanol at −20 °C and were incubated with 60 μL Poly(ADP-ribose) monoclonal antibody (1:2000) (prepared at 1x PBS containing 0.05% Tween-20 with 1% bovine serum albumin) at 37 °C for 2 h, followed by incubation with 60 μL IRDye 800CW goat anti-mouse IgG (diluted to 1:5000) and DNA stain DRAQ5 (1:5000) (prepared at 1× PBS containing 0.05% Tween-20 with 1% bovine serum albumin) at 37 °C for 2 h. The fluorescent signal was normalized with the DRAQ5 signal, and IC50 values were calculated using GraphPad Prism 8.0 software.

[6] = Phosphate-buffered saline stability of the photoactivatable prodrug (HPLC); type: physicochemical; details: 20 μM, pH = 7.4 PBS with 10% DMSO, 37 °C, 48 h
Protocol: Twenty μM of the test compound in pH = 7.4 PBS, containing 10% DMSO, were transferred to 13 1 mL volumetric flasks in equal volumes, incubated at 37 °C. The volumetric flasks were taken out at 0 min, 5 min, 10 min, 15 min, 30 min, 1 h, 2 h, 4 h, 8 h, 12 h, 24 h, 48 h, and 7 days, and were frozen at −80 °C. The samples were thawed in sequence and diluted to the same volume with methanol. Then HPLC analysis was performed to detect the compound peak area. Samples were determined on an Agilent Eclipse Plus C18 column (4.6 × 150 mm, 5 μm particle size; California, CA, USA) using a mobile phase A (water) and mobile phase B (ACN) to elute. The gradient changed from 70% A to 30% A in 10 min, continuing to elute with 30% A for 5 min. The flow rate was 1 mL/min, and the detection wavelength was 220 nm.

PARP-1 enzyme = target: T1, PARP-1 enzyme (Homo sapiens, UniProt P09874); assay: PARP-1 enzyme inhibition assay (PARP-1 Chemiluminescent Assay Kit); type: biochemical
T1 construct: purchased BPS 80569
T1 sequence (P09874 whole entry): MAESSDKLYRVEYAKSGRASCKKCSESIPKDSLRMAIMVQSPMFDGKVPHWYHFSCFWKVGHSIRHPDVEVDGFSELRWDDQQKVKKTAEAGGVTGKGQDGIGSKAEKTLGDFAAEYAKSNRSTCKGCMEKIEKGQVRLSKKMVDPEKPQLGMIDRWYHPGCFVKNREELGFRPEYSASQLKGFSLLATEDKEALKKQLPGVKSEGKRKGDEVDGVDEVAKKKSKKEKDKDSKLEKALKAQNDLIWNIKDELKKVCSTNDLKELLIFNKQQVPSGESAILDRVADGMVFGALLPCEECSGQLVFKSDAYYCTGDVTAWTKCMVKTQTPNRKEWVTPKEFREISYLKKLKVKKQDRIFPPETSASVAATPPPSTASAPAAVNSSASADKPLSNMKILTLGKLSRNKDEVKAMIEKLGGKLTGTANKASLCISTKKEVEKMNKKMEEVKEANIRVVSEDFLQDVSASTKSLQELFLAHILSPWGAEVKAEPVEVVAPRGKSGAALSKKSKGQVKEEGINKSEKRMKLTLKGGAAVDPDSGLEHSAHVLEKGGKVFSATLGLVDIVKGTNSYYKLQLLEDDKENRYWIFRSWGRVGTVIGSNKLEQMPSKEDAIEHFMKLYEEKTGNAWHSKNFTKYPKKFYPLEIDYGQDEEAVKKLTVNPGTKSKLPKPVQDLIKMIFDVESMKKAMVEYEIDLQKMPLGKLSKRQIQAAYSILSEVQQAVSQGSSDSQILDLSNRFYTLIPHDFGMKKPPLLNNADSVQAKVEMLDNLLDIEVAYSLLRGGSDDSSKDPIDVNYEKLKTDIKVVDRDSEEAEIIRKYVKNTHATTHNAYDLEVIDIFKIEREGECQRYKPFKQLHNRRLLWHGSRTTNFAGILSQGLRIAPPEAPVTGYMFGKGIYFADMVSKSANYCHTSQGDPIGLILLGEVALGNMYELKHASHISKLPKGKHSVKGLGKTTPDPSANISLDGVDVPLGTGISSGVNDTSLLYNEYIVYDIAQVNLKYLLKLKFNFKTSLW
Protocol: A PARP-1 Chemiluminescent Assay Kit (Cat# 80569, BPS, San Diego, CA, USA) was used to detect the ability of compounds to inhibit PARP-1 enzyme activity. All experimental steps followed the operating manual. Firstly, each well was precoated with 25 μL 1× histone mixture that was diluted in PBS by incubation at 4 °C overnight. The wells were blocked by adding 100 μL of blocking buffer, then incubated at room temperature for 90 min. Then 12.5 μL of the prepared 1× PARP assay mixture and 1× activated DNA in 1× PARP buffer were added into each well of the assay plate, and 2.5 μL of compound or solvent control were added at varying concentrations. The reaction was initiated by the addition of 10 μL 1 ng/μL PARP-1 enzyme in 1× PARP buffer at room temperature for 60 min. Next, the reaction solution was added with 25 μL of diluted Streptavidin-HRP (1:50 in blocking buffer) to each well at room temperature for an additional 30 min. Finally, 25 μL of Horseradish Peroxidase (HRP) chemiluminescent substrate A and 25 μL of HRP chemiluminescent substrate B were mixed on ice, and the mixture was added by 50 μL per well. The luminescent signal was measured using a multi-function microplate reader, and IC50 values were calculated using GraphPad Prism 8.0 software.

[7] = UV cleavage test in culture medium DMEM in 96-well plate (HPLC); type: physicochemical; details: 10 μM in DMEM, 365 nm, 3 min
Protocol: Therefore, we tested the Capan-1 cells that could tolerate a longer UV irradiation duration. […] We simulated the same cytotoxicity experimental conditions to evaluate the photolysis of 10 μΜ compound 3 (10 μM is the starting concentration of compound 3 in cytotoxicity experiments) in a 96-well plate.
Supplementary Materials: Design, Synthesis and In Vitro Evaluation of the […]
Jiaguo Li 1, 2, Dian Xiao 2, Lianqi Liu 2, Fei Xie 2, Wei Li 2, Wei Sun 1,*, Xiaohong Yang 1,*, and Xinbo Zhou 2,* […]
wavelength scanning; (B) Local UV/Vis absorption spectra with a wavelength range of 290-500 nm. Compound […]
Introduction of the PPG into the parent compound's molecular structure leads to increased light absorption around 365 nm. Wavelengths shorter than 300 nm is highly energetic and can easily damage tissues and cells. Therefore, 365 nm was considered as the optimal wavelength for deprotection.
Figure S2. UV-cleavage test on the Compound 3 in culture medium DMEM. Compound 3 were dissolved in DMEM medium containing 0.1 %DMSO and added to 96-well plates at a final concentration of 10 μM. After being irradiated for 1 min and 3 min at 365 nm respectively, the samples were analyzed by HPLC. The peak area is plotted against the irradiation time. […]

[8] = UV+, compound irradiated 20 min at 365 nm before addition to cells

stability in PBS (HPLC peak area) [6]	IC50 (PARP-1 enzyme)	reduction of PARP-1 inhibitory activity versus Talazoparib (PARP-1 enzyme; ratio of IC50 values, compound 3 vs Talazoparib)	Compound	IC50 ([1]; 240 h, UV-, no irradiation)	IC50 [1, 8]	IC50 ([2]; 240 h, UV-, no irradiation)	IC50 [2, 8]	irradiation time to complete release (photolysis) [3]	UV stability (HPLC peak area) [4]	IC50 (PARP)	IC50 [5]	IC50 ([1]; UV+, 365 nm irradiation of cells 3 min after 1 h incubation)	inhibitory activity on Capan-1 cells after UV irradiation versus non-irradiated group ([1]; UV 3 min vs no UV)	IC50 ([2]; UV+, 365 nm irradiation of cells 1 min after 1 h incubation)	inhibitory activity on MX-1 cells after UV irradiation versus non-irradiated group ([2]; UV 1 min vs no UV)	release after UV irradiation under cytotoxicity experimental conditions [7]	decrease of PARylation inhibitory activity versus Talazoparib ([5]; ratio of IC50 values)
–	–	–	C[C@H](NC(=O)OC(C)(C)C)C(=O)OCc1cc2c(cc1[N+](=O)[O-])OCO2 [compound 6, (6-Nitrobenzo[d][1,3]dioxol-5-yl)methyl (tert-butoxycarbonyl)-L-alaninate]	> 10000 nM	> 10000 nM	> 10000 nM	> 10000 nM	≤ 20 min	–	–	–	–	–	–	–	–	–
–	–	–	Cn1ncnc1[C@H]1c2n[nH]c(=O)c3cc(F)cc(c23)N[C@@H]1c1ccc(F)cc1 [Talazoparib, reference compound]	3 nM	–	15 nM	–	–	no significant loss	[…]	[…]	–	–	–	–	–	–
did not show significant changes	1920 nM	380 times	Cn1ncnc1[C@H]1c2nn(Cc3cc4c(cc3[N+](=O)[O-])OCO4)c(=O)c3cc(F)cc(c23)N[C@@H]1c1ccc(F)cc1 [compound 3, (8S,9R)-5-Fluoro-8-(4-fluorophenyl)-9-(1-methyl-1H-1,2,4-triazol-5-yl)-2-((6-nitrobenzo[d][1,3]dioxol-5-yl)methyl)-2,7,8,9-tetrahydro-3H pyrido[4,3,2-de]phthalazin-3-one]	863 nM	–	1870 nM	–	3 min	–	–	329 nM	92 nM	nine times higher	577 nM	approximately three times higher	not released completely	≥ 658 times
